Here are results for two molecules from ChEMBL document CHEMBL1159373, “New acetylenic acids from a sponge of the genus Stelletta” (2003).

In brackets after ≈: the same amount, converted by molar mass.

In the assay the test system is K562. Nature of the assay: Cytotoxicity against human K562 cells. Particulars: read-out: LC50 (the source's name). The class given is functional.

For the molecule `C=CCCCCC(C)CCCCCC#CCCC(OC)C(=O)OC(=O)C(CCC#CCCCCCC(C)CCCCC=C)OC` (configuration not stated), the CC50 is 62.5 µg/mL (≈ 99.7 µM).

Regarding `C=CCCCCC(C)CCCCCC#CCCCC(=O)O` (configuration not stated), the CC50 worked out at 43.5 µg/mL (≈ 149 µM).
